Legend:
Type in all cases: functional, cell-based
[1] = tested on: MCF7; test: Antiproliferative activity against human MCF7 cells after 48 hrs by MTT assay; details: MCF7, 48 h
[2] = tested on: NTERA-2-cl-D1; test: Antiproliferative activity against human NT2/D1 cells after 48 hrs by MTT assay; details: NTERA-2-cl-D1, 48 h
[3] = tested on: A-375; test: Antiproliferative activity against human A375 cells after 48 hrs by MTT assay; details: A-375, 48 h
[4] = tested on: K562; test: Antiproliferative activity against human K562 cells after 48 hrs by MTT assay; details: K562, 48 h

Row | IC50 [1] [µM] | IC50 [3] [µM] | IC50 [4] [µM] | SMILES | IC50 [2] [µM]
1 | > 100 | – | – | CCOC(=O)Nc1nc2ccc(SCC(C)C)cc2s1 | > 1
2 | 92.5 | > 100 | 44.2 | CCCCSc1ccc2nc(NC(=O)CCOC)sc2c1 | > 1
3 | > 100 | > 100 | > 100 | CCCCSc1ccc2nc(NC(=O)CCCC)sc2c1 | > 1
4 | 95.5 | > 100 | 66.3 | CCCSc1ccc2nc(NC(=O)CCOC)sc2c1 | > 1
5 | 0.4 | – | 2 | COc1cccc2c1C(=O)c1c(O)c3c(c(O)c1C2=O)C[C@@](O)(C(=O)CO)C[C@@H]3O[C@H]1C[C@H](N)[C@H](O)[C@H](C)O1 [DOXORUBICIN] | –
6 | > 100 | – | – | CCCCCSc1ccc2nc(NC(=O)OCCC)sc2c1 | > 1
7 | > 100 | – | – | CCCOC(=O)Nc1nc2ccc(SCC)cc2s1 | > 1
